# Measured values taken from ChEMBL document CHEMBL1201862, “PubChem BioAssay data set” (2004).
#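 Test compounds were applied to cells in 96-well plates for 48 hours at 5 doses. GI50: concentration for 50% inhibition of growth.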 Calls of active or inactive are those of the source. Rule as the data show it: active = GI50 up to about 1.1 µM and inactive = higher.
# Experiments:
# Assay in all cases: DTP human tumour cell line panel, 48 h
# M14 = tested on: M14
# OVCAR-8 = tested on: OVCAR-8
# HCT-15 = tested on: HCT-15
# K562 = tested on: K562
# CCRF-CEM = tested on: CCRF-CEM
# MOLT-4 = tested on: MOLT-4
# SF-539 = tested on: SF-539
# OVCAR-5 = tested on: OVCAR-5
# SF-268 = tested on: SF-268
# TK-10 = tested on: TK-10
# RXF 393 = tested on: RXF 393
# CAKI-1 = tested on: CAKI-1
# DU-145 = tested on: DU-145
# COLO 205 = tested on: COLO 205
# UO-31 = tested on: UO-31
# KM12 = tested on: KM12
# MCF7 = tested on: MCF7
# MDA-MB-231 = tested on: MDA-MB-231
# NCI-H460 = tested on: NCI-H460
# MDA-N = tested on: MDA-N
# SN12C = tested on: SN12C
# UACC-62 = tested on: UACC-62
# EKVX = tested on: EKVX
# SW-620 = tested on: SW-620
# HCT-116 = tested on: HCT-116
# BT-549 = tested on: BT-549
# NCI-H226 = tested on: NCI-H226
# PC-3 = tested on: PC-3
# SK-MEL-2 = tested on: SK-MEL-2
# T47D = tested on: T47D
# 786-0 = tested on: 786-0
# A549 = tested on: A549
# Hs-578T = tested on: Hs-578T
# UACC-257 = tested on: UACC-257
# SNB-75 = tested on: SNB-75
# A498 = tested on: A498
# OVCAR-4 = tested on: OVCAR-4
# OVCAR-3 = tested on: OVCAR-3
# SF-295 = tested on: SF-295
# U-251 = tested on: U-251
# SR = tested on: SR
# RPMI-8226 = tested on: RPMI-8226
# SK-MEL-28 = tested on: SK-MEL-28
# HCC 2998 = tested on: HCC 2998
# SK-OV-3 = tested on: SK-OV-3
# NCI-H522 = tested on: NCI-H522
# HOP-62 = tested on: HOP-62
# MDA-MB-435 = tested on: MDA-MB-435
# SNB-19 = tested on: SNB-19
# SK-MEL-5 = tested on: SK-MEL-5
# ACHN = tested on: ACHN
# HOP-92 = tested on: HOP-92
# Malme-3M = tested on: Malme-3M
# NCI-H23 = tested on: NCI-H23
# NCI/ADR-RES = tested on: NCI/ADR-RES
# LOX IMVI = tested on: LOX IMVI
# IGROV-1 = tested on: IGROV-1
# HL-60 = tested on: HL-60
# HT-29 = tested on: HT-29
# DMS-273 = tested on: DMS-273
# M19-MEL = tested on: M19-MEL
# DLD-1 = tested on: DLD-1
# HOP-18 = tested on: HOP-18
# LXFL 529 = tested on: LXFL 529
# DMS-114 = tested on: DMS-114
# KM-20L2 = tested on: KM-20L2
compound,measurement,setting,value
O=C(c1no[n+]([O-])c1C(=O)c1csc2ccccc12)c1csc2ccccc12,GI50,M14,9.04 µM (inactive)
same,GI50,OVCAR-8,3.09 µM (inactive)
same,GI50,HCT-15,4.57 µM
same,GI50,K562,1.52 µM (inactive)
same,GI50,CCRF-CEM,0.0834 µM (active)
same,GI50,MOLT-4,0.678 µM (active)
same,GI50,SF-539,2.61 µM (inactive)
same,GI50,OVCAR-5,18.3 µM (inactive)
same,GI50,SF-268,6.27 µM (inactive)
same,GI50,TK-10,1.99 µM (inactive)
same,GI50,RXF 393,7.19 µM (inactive)
same,GI50,CAKI-1,0.82 µM (active)
same,GI50,DU-145,17.9 µM (inactive)
same,GI50,COLO 205,3.06 µM (inactive)
same,GI50,UO-31,0.505 µM (active)
same,GI50,KM12,6.95 µM (inactive)
same,GI50,MCF7,4.41 µM (inactive)
same,GI50,MDA-MB-231,5.64 µM (inactive)
same,GI50,NCI-H460,13.2 µM (inactive)
same,GI50,MDA-N,8.69 µM (inactive)
same,GI50,SN12C,4.37 µM (inactive)
same,GI50,UACC-62,10.9 µM (inactive)
same,GI50,EKVX,3.55 µM (inactive)
same,GI50,SW-620,2.21 µM (inactive)
same,GI50,HCT-116,8.85 µM (inactive)
same,GI50,BT-549,6.55 µM (inactive)
same,GI50,NCI-H226,12.9 µM (inactive)
same,GI50,PC-3,3.13 µM (inactive)
same,GI50,SK-MEL-2,6.68 µM (inactive)
same,GI50,T47D,5.96 µM (inactive)
same,GI50,786-0,0.27 µM (active)
same,GI50,A549,10 µM (inactive)
same,GI50,Hs-578T,10.2 µM (inactive)
same,GI50,UACC-257,4.92 µM (inactive)
same,GI50,SNB-75,15.1 µM (inactive)
same,GI50,A498,15 µM (inactive)
same,GI50,OVCAR-4,2.86 µM (inactive)
same,GI50,OVCAR-3,1.86 µM (inactive)
same,GI50,SF-295,14.6 µM (inactive)
same,GI50,U-251,9.95 µM (inactive)
same,GI50,SR,0.106 µM (active)
same,GI50,RPMI-8226,0.521 µM (active)
same,GI50,SK-MEL-28,4.09 µM (inactive)
same,GI50,HCC 2998,4.6 µM (inactive)
same,GI50,SK-OV-3,16.1 µM (inactive)
same,GI50,NCI-H522,0.652 µM (active)
same,GI50,HOP-62,9.33 µM (inactive)
same,GI50,MDA-MB-435,8.93 µM (inactive)
same,GI50,SNB-19,16.9 µM (inactive)
same,GI50,SK-MEL-5,12.8 µM (inactive)
same,GI50,ACHN,4.54 µM (inactive)
same,GI50,HOP-92,2.16 µM (inactive)
same,GI50,Malme-3M,3.19 µM (inactive)
same,GI50,NCI-H23,14.1 µM (inactive)
same,GI50,NCI/ADR-RES,15.6 µM (inactive)
same,GI50,LOX IMVI,1.25 µM (inactive)
same,GI50,IGROV-1,1.4 µM (inactive)
same,GI50,HL-60,0.0246 µM (active)
same,GI50,HT-29,3.64 µM (inactive)
Nc1ncnc2c1ncn2CC(O)C(=O)O (stereo not given),GI50,M14,> 100 µM (inactive)
same,GI50,OVCAR-8,> 100 µM (inactive)
same,GI50,HCT-15,> 100 µM
same,GI50,K562,> 100 µM (inactive)
same,GI50,CCRF-CEM,> 100 µM (inactive)
same,GI50,DMS-273,> 100 µM (inactive)
same,GI50,MOLT-4,> 100 µM (inactive)
same,GI50,SF-539,> 100 µM (inactive)
same,GI50,OVCAR-5,> 100 µM (inactive)
same,GI50,SF-268,> 100 µM (inactive)
same,GI50,TK-10,> 100 µM (inactive)
same,GI50,RXF 393,> 100 µM (inactive)
same,GI50,M19-MEL,> 100 µM (inactive)
same,GI50,CAKI-1,> 100 µM (inactive)
same,GI50,DU-145,> 100 µM (inactive)
same,GI50,COLO 205,> 100 µM (inactive)
same,GI50,UO-31,> 100 µM (inactive)
same,GI50,KM12,> 100 µM (inactive)
same,GI50,MCF7,> 100 µM (inactive)
same,GI50,MDA-MB-231,> 100 µM (inactive)
same,GI50,NCI-H460,> 100 µM (inactive)
same,GI50,MDA-N,> 100 µM (inactive)
same,GI50,SN12C,> 100 µM (inactive)
same,GI50,UACC-62,> 100 µM (inactive)
same,GI50,EKVX,> 100 µM (inactive)
same,GI50,SW-620,> 100 µM (inactive)
same,GI50,HCT-116,> 100 µM (inactive)
same,GI50,BT-549,> 100 µM (inactive)
same,GI50,NCI-H226,> 100 µM (inactive)
same,GI50,PC-3,> 100 µM (inactive)
same,GI50,SK-MEL-2,> 100 µM (inactive)
same,GI50,T47D,> 100 µM (inactive)
same,GI50,786-0,> 100 µM (inactive)
same,GI50,A549,> 100 µM (inactive)
same,GI50,Hs-578T,> 100 µM (inactive)
same,GI50,UACC-257,> 100 µM (inactive)
same,GI50,SNB-75,> 100 µM (inactive)
same,GI50,DLD-1,> 100 µM (inactive)
same,GI50,A498,> 100 µM (inactive)
same,GI50,OVCAR-4,> 100 µM (inactive)
same,GI50,OVCAR-3,> 100 µM (inactive)
same,GI50,SF-295,> 100 µM (inactive)
same,GI50,U-251,> 100 µM (inactive)
same,GI50,SR,> 100 µM (inactive)
same,GI50,RPMI-8226,> 100 µM (inactive)
same,GI50,SK-MEL-28,> 100 µM (inactive)
same,GI50,HCC 2998,> 100 µM (inactive)
same,GI50,SK-OV-3,> 100 µM (inactive)
same,GI50,HOP-18,71 µM (inactive)
same,GI50,NCI-H522,> 100 µM (inactive)
same,GI50,HOP-62,> 100 µM (inactive)
same,GI50,MDA-MB-435,> 100 µM (inactive)
same,GI50,LXFL 529,> 100 µM (inactive)
same,GI50,SNB-19,> 100 µM (inactive)
same,GI50,SK-MEL-5,> 100 µM (inactive)
same,GI50,ACHN,> 100 µM (inactive)
same,GI50,HOP-92,> 100 µM (inactive)
same,GI50,DMS-114,> 100 µM (inactive)
same,GI50,Malme-3M,> 100 µM (inactive)
same,GI50,KM-20L2,> 100 µM (inactive)
same,GI50,NCI-H23,> 100 µM (inactive)
same,GI50,NCI/ADR-RES,> 100 µM (inactive)
same,GI50,LOX IMVI,> 100 µM (inactive)
same,GI50,IGROV-1,> 100 µM (inactive)
same,GI50,HL-60,> 100 µM (inactive)
same,GI50,HT-29,> 100 µM (inactive)
